pIC50: −log10 of the molar value. Like-named read-outs stand apart in the source and are kept apart here.
Key:
A. nidulans = test: antifungal broth dilution susceptibility test, A. nidulans; assay type: cell-based; details: Aspergillus nidulans, mean of three independent experiments, read-out: Toxic-IC90 Anid
Protocol: (§1) Cell culture cytotoxicity assays were performed as described using human foreskin fibroblasts ATCC SCRC-1041 [38], lung carcinoma cells A549 [39], colorectal carcinoma cells HCT-116 [40], pancreatic adenocarcinoma cells PNS1 [41] or glioblastoma multiforme cells T98G [42]. Antibacterial activity was determined using a conventional microtiter broth-dilution technique for two reference strains, S. aureus CECT 794 and M. smegmatis DSMZ 43756. Antifungal activity was measured using the reference method antifungal broth dilution susceptibility test (National Committee for Clinical Laboratory Standars) against two species: A. nidulans (Microorganisms Collection of Biomar Microbial Technologies) and C. albicans CECT 1394.

[1] = tested on: PSN1 pancreatic adenocarcinoma cells; test: cell culture cytotoxicity assay, PSN1; assay type: cell-based; details: Homo sapiens, mean of three independent experiments, read-out: Toxic-IC50 PSN1
Protocol: as §1

[2] = tested on: human foreskin fibroblasts ATCC SCRC-1041; test: cell culture cytotoxicity assay, fibroblasts; assay type: cell-based; details: Fibroblast, mean of three independent experiments, read-out: Toxic-IC50 Fibroblasts
Protocol: as §1

C. albicans CECT 1394 = test: antifungal broth dilution susceptibility test, C. albicans; assay type: cell-based; details: Candida albicans, CECT1394, mean of three independent experiments, read-out: Toxic-IC90 Calb
Protocol: as §1

[3] = tested on: IncW plasmid R388 (derivative pSU2007::Tnlux) conjugation; details: COIN threshold; cited from earlier work
[4] = tested on: lung carcinoma cells A549; test: cell culture cytotoxicity assay, A549; assay type: cell-based; details: Homo sapiens, mean of three independent experiments, read-out: Toxic-IC50 A549
Protocol: as §1

[5] = tested on: bacterial and fungal strains; test: antibacterial and antifungal activities (summary statement); assay type: cell-based; details: summary of Table 1; read-out: toxic-IC90 values, antibacterial and antifungal activities
Protocol: as §1

[6] = tested on: glioblastoma multiforme cells T98G; test: cell culture cytotoxicity assay, T98G; assay type: cell-based; details: Homo sapiens, mean of three independent experiments, read-out: Toxic-IC50 T98G
Protocol: as §1

[7] = tested on: colorectal carcinoma cells HCT-116; test: cell culture cytotoxicity assay, HCT-116; assay type: cell-based; details: Homo sapiens, mean of three independent experiments, read-out: Toxic-IC50 HCT-116
Protocol: as §1

S. aureus CECT 794 = test: antibacterial activity, microtiter broth-dilution, S. aureus; assay type: cell-based; details: Staphylococcus aureus, CECT794, mean of three independent experiments, read-out: Toxic-IC90 Saur
Protocol: as §1

M. smegmatis DSMZ 43756 = test: antibacterial activity, microtiter broth-dilution, M. smegmatis; assay type: cell-based, Mycobacterium smegmatis; details: Mycolicibacterium smegmatis, DSMZ43756, mean of three independent experiments, read-out: Toxic-IC90 Msme
Protocol: as §1

Phytophthora infestans = details: at comparable concentrations; cited from earlier work
Magnaporthe oryzae = details: read-out: toxic-IC50, inhibition of conidial germination; cited from earlier work
Botrytis cinerea = tested on: Botrytis cinerea; parameters: method as in PMID 24605144; details: at comparable concentrations; cited from earlier work
Paecilomyces variotii = tested on: Paecilomyces variotii; parameters: method as in PMID 24605144; details: at a concentration of 185 μM; cited from earlier work
HeLaS3 cells = tested on: HeLaS3 cells; parameters: method as in PMID 24605144; details: at a concentration of 185 μM; cited from earlier work
[8] = tested on: superoxide anion production; details: cited from earlier work
Brevibacillus brevis = tested on: Brevibacillus brevis; parameters: method as in PMID 24605144; details: at a concentration of 185 μM; cited from earlier work
[9] = tested on: IncW plasmid R388 conjugation; test: plate-conjugation assay, R388; assay type: cell-based, E. coli; details: for COIN activity on R388 conjugation (CF): 1 mM
Protocol: (§2) For the plate-mating procedure, a 200 μl mixture of equal volumes of donor and recipient cultures previously washed, both in stationary phase, was centrifuged and resuspended in 15 μl LB-broth. 5 μl of this mixture were placed on top of 96-well microtiter plate wells containing 150 μl LB-agar (± COINs) and conjugation was allowed to proceed, in general, for 1 h at 37°C. The temperature-sensitive IncH plasmid drR27 was allowed to conjugate for 2 h at 25°C [35]. Bacteria were then resuspended in 150 μl M9 broth and corresponding dilutions were plated on selective media. CF was calculated as the number of transconjugant cells per donor, whereas MF was calculated as the number of cells receiving the mobilizable plasmid per donor. Since this type of frequency data were log-normally distributed, means are calculated using decimal logarithms of data.

Mucor miehei = tested on: Mucor miehei; parameters: method as in PMID 24605144; details: at a concentration of 185 μM; cited from earlier work
[10] = tested on: R388 conjugation (R388 derivative pJC01); test: fluorescence-based HTC assay; assay type: cell-based, E. coli; details: for pIC50: Escherichia coli, read-out: COIN-IC50
[11] = tested on: R388 conjugation (R388 derivative pJC01); parameters: method as in PMID 26330514; details: read-out: COIN-IC50; cited from earlier work
Proteus mirabilis = tested on: Proteus mirabilis; parameters: method as in PMID 26055397; details: cited from earlier work
Klebsiella pneumoniae = tested on: Klebsiella pneumoniae; parameters: method as in PMID 26055397; details: cited from earlier work
mobilization of RSF1010 = test: mobilization by plate-conjugation assay, RSF1010; assay type: cell-based, E. coli; details: 0.4 mM; helper plasmid pRL443
Protocol: as §2

mobilization of CloDF13 = test: mobilization by plate-conjugation assay, CloDF13; assay type: cell-based, E. coli; details: 0.4 mM; helper plasmid R388, pOX38 or R100-1
Protocol: as §2

U937 = tested on: U937; parameters: method as in PMID 26055397; details: at 100 μM; cited from earlier work
Raji = tested on: Raji; parameters: method as in PMID 26055397; details: at 100 μM; cited from earlier work
Jurkat = tested on: Jurkat; parameters: method as in PMID 26055397; details: at 100 μM; cited from earlier work
IncN plasmid conjugation = test: plate-conjugation assay, IncN plasmids; assay type: cell-based, E. coli; details: 0.4 mM
Protocol: as §2

mobilization of ColE1 = test: mobilization by plate-conjugation assay, ColE1; assay type: cell-based, E. coli; details: 0.4 mM
Protocol: as §2

IncP plasmid conjugation = test: plate-conjugation assay, IncP plasmids; assay type: cell-based, E. coli; details: 0.4 mM
Protocol: as §2

C. albicans = tested on: C. albicans; parameters: method as in PMID 26055397; details: cited from earlier work
Enterococcus faecalis = tested on: Enterococcus faecalis; parameters: method as in PMID 26055397; details: cited from earlier work
K562 = tested on: K562; parameters: method as in PMID 26055397; details: at 100 μM; cited from earlier work
[12] = tested on: IncFII plasmid R100-1 conjugation; test: plate-conjugation assay, R100-1; assay type: cell-based, E. coli; details: 0.4 mM
Protocol: as §2

Bacillus cereus = tested on: Bacillus cereus; parameters: method as in PMID 26055397; details: cited from earlier work

CCCCC/C=C\C/C=C\CCCCCCCC(=O)O [Linoleic acid]
IC90 (A. nidulans): > 360 µM
pIC50 [1]: 4.05
pIC50 [2]: 3.52
IC90 (C. albicans CECT 1394): > 360 µM
pIC50 [3]: ~4.30
pIC50 [4]: 4.05
IC90 [5]: > 100 µM
pIC50 [6]: 3.74
pIC50 [7]: 3.74
IC90 (S. aureus CECT 794): > 360 µM
IC90 (M. smegmatis DSMZ 43756): 360 µM

Cc1ccc2c(c1/C=C/C=C/C(=O)O)C(C)CC(C)C2 (centres unmarked) [TZA-A, tanzawaic acid A]
IC90 (A. nidulans): > 230 µM
effect on germination of Phytophthora infestans (Phytophthora infestans): not affected
pIC50 (Magnaporthe oryzae): 4.43
pIC50 [1]: 4.05
effect on germination of Botrytis cinerea (Botrytis cinerea): not affected
pIC50 [2]: 3.72
IC90 (C. albicans CECT 1394): > 230 µM
activity against Paecilomyces variotii (Paecilomyces variotii): weak activity
pIC50 [4]: 4.22
activity against HeLaS3 cells (HeLaS3 cells): weak activity
IC90 [5]: > 100 µM
inhibition of superoxide anion production [8]: inhibitors of superoxide anion production
activity against Brevibacillus brevis (Brevibacillus brevis): weak activity
COIN activity on R388 conjugation (CF) ([9]; plate-conjugation assay): inhibited R388 conjugation to levels similar to TZA-B
activity against Mucor miehei (Mucor miehei): weak activity
pIC50 [6]: 4.05
pIC50 [7]: 4.15
pIC50 [10]: ~4.30
IC90 (S. aureus CECT 794): 230 µM
IC90 (M. smegmatis DSMZ 43756): 230 µM

CC1C=CC2CC(C)(O)CC(C)C2C1/C=C/C=C/C(=O)O (centres unmarked) [TZA-E]
inhibition of superoxide anion production [8]: inhibitors of superoxide anion production
COIN activity on R388 conjugation (CF) ([9]; plate-conjugation assay): did not show significant COIN activity

CCCCCCCCCCCCCCCC#CC(=O)O [2-ODA, 2-octadecynoic acid]
IC90 (A. nidulans): 220 µM
pIC50 [1]: 3.74
pIC50 [2]: 4.05
IC90 (C. albicans CECT 1394): 220 µM
pIC50 [11]: ~4.30
pIC50 [4]: 4.05
pIC50 [6]: 3.82
pIC50 [7]: 4.15
IC90 (S. aureus CECT 794): 350 µM
IC90 (M. smegmatis DSMZ 43756): 7 µM

CCCCCCCCCCCCCC#CC(=O)O [2-HDA, 2-hexadecynoic acid]
IC90 (A. nidulans): 8 µM
pIC50 [1]: 4.10
pIC50 [2]: 4.00
IC90 (C. albicans CECT 1394): < 4 µM
pIC50 [11]: ~4.30
pIC50 [4]: 4.40
pIC50 [6]: 4.00
pIC50 [7]: 4.40
IC90 (S. aureus CECT 794): 30 µM
IC90 (M. smegmatis DSMZ 43756): 8 µM

CC1CC(C)C2C(C=CC(C)C2C=CC=CC(=O)O)C1 (centres unmarked) [TZA-B, tanzawaic acid B]
antimicrobial activity, concentration below which no effect (Proteus mirabilis): ≥ 364 µM
IC90 (A. nidulans): > 230 µM
antimicrobial activity, concentration below which no effect (Klebsiella pneumoniae): ≥ 364 µM
effect on mobilization (MF) (mobilization of RSF1010): unaffected
effect on mobilization (MF) (mobilization of CloDF13): affected
response of U937 cells (U937): no response
pIC50 [1]: 3.74
pIC50 [2]: 3.74
IC90 (C. albicans CECT 1394): > 230 µM
response of Raji cells (Raji): no response
pIC50 [4]: 4.05
response of Jurkat cells (Jurkat): no response
effect on conjugation (IncN plasmid conjugation): not affected
effect on mobilization (MF) (mobilization of ColE1; helper plasmid R388, pOX38 or R100-1): affected
effect on mobilization (MF) (mobilization of ColE1; helper plasmid pRL443): unaffected
IC90 [5]: > 100 µM
inhibition of superoxide anion production [8]: inhibitor of superoxide anion production
inhibition of conjugation ([9]; 0.4 mM, IncW plasmid R388): ~100 fold
R388 conjugation (relative CF) ([9]; 0.4 mM, plate-conjugation assay): 2 ± 2%
effect on conjugation (IncP plasmid conjugation): not affected
antimicrobial activity, concentration below which no effect (C. albicans): ≥ 364 µM
pIC50 [6]: 3.74
pIC50 [7]: 4.05
antimicrobial activity, concentration below which no effect (Enterococcus faecalis): ≥ 364 µM
response of K562 cells (K562): no response
R388 conjugation (relative CF) ([10]; 0.4 mM, relative to control without COINs (100%)): 2%
pIC50 [10]: ~4.30
IC90 (S. aureus CECT 794): 120 µM
IC90 (M. smegmatis DSMZ 43756): 120 µM
inhibition of conjugation [12]: ~100 fold
antimicrobial activity, concentration below which no effect (Bacillus cereus): ≥ 364 µM

CCCCCCCC/C=C\CCCCCCCC(=O)O [Oleic acid]
IC90 (A. nidulans): > 220 µM
pIC50 [1]: 4.10
pIC50 [2]: 3.46
IC90 (C. albicans CECT 1394): > 220 µM
pIC50 [3]: ~4.30
pIC50 [4]: 4.40
IC90 [5]: > 100 µM
pIC50 [6]: 3.74
pIC50 [7]: 3.74
IC90 (S. aureus CECT 794): > 420 µM
IC90 (M. smegmatis DSMZ 43756): > 420 µM

Source: publication PMC4727781, “Tanzawaic Acids, a Chemically Novel Set of Bacterial Conjugation Inhibitors” (PLoS ONE, 2016)
